Among the data in PubChem BioAssay (NCI) are TGI values, retold here.

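Interpolation was linear, between the two tested concentrations surrounding the appropriate level; five concentrations were tested over 48 hours in 96-well plates. TGI is the concentration that stops growth completely.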 Where only a bound is given, the exact number is not on record here.

Test systems include EKVX NSCLC; HCC-2998 colon; HL-60(TB) leukemia; HT29 colon; KM12 colon; M14 melanoma; MDA-MB-435; NCI-H23 lung; NCI-H460 lung; RPMI-8226 leukemia; RXF 393 renal; SF-268 CNS; SF-295 CNS; SK-MEL-2 melanoma; SK-OV-3 ovarian; SN12C renal; SNB-75 CNS; SW-620 colon; TK-10 renal; UACC-257 melanoma.
What all share (assay): NCI tumour cell line growth inhibition, 48 h

`CC(=O)Nc1nc(C#N)[nH]c1C#N`: the TGI with EKVX NSCLC, in the assay with HCC-2998 colon, with HL-60(TB) leukemia, in the assay with HT29 colon, in the assay with KM12 colon and with M14 melanoma was greater than 100 µM each time. Further, the TGI in the assay on MDA-MB-435, with NCI-H23 lung, with NCI-H460 lung, in the assay on RPMI-8226 leukemia, in the assay on RXF 393 renal and in the assay with SF-268 CNS was greater than 100 µM each time. Besides, the TGI with SF-295 CNS, in the assay with SK-MEL-2 melanoma, with SK-OV-3 ovarian, in the assay with SN12C renal, in the assay with SNB-75 CNS and in the assay on SW-620 colon was greater than 100 µM throughout. The TGI in the assay on TK-10 renal and in the assay with UACC-257 melanoma was greater than 100 µM in each case.

Turning to `Cc1ccc(-c2[nH]c(=O)n(C3OC(CO)C(O)C(O)C3O)c(=O)c2C#N)cc1` (stereo not given), the TGI in the assay on EKVX NSCLC, in the assay with HCC-2998 colon, in the assay on HL-60(TB) leukemia, in the assay with HT29 colon, in the assay with KM12 colon and with M14 melanoma was greater than 100 µM each time. For the same compound, the TGI in the assay on MDA-MB-435, with NCI-H23 lung, in the assay on NCI-H460 lung, with RPMI-8226 leukemia, in the assay on RXF 393 renal and in the assay with SF-268 CNS was greater than 100 µM throughout. Besides, the TGI in the assay on SF-295 CNS, with SK-MEL-2 melanoma, in the assay with SK-OV-3 ovarian, in the assay with SN12C renal, in the assay with SNB-75 CNS and with SW-620 colon was greater than 100 µM in each case. Besides, the TGI in the assay with TK-10 renal and in the assay with UACC-257 melanoma was greater than 100 µM in each case.

Consider `O=c1c2sc(=S)n(-c3ccc(F)cc3)c2ncn1/N=C/c1ccc(F)cc1F`, for which the TGI is 39.2 µM with EKVX NSCLC; greater than 100 µM in the assay with HCC-2998 colon; greater than 100 µM with HL-60(TB) leukemia; greater than 100 µM with HT29 colon; greater than 100 µM in the assay with KM12 colon; 67.4 µM in the assay on M14 melanoma. Further, the TGI was greater than 100 µM with MDA-MB-435; greater than 100 µM with NCI-H23 lung; greater than 100 µM in the assay on NCI-H460 lung; greater than 100 µM in the assay with RPMI-8226 leukemia; 45.5 µM with RXF 393 renal; 43.1 µM in the assay with SF-268 CNS. Besides, the TGI in the assay on SF-295 CNS is 65.8 µM; in the assay with SK-MEL-2 melanoma, 85.6 µM; in the assay on SK-OV-3 ovarian, 53.7 µM; with SN12C renal, greater than 100 µM; in the assay with SNB-75 CNS, 32.8 µM; in the assay with SW-620 colon, greater than 100 µM. Moreover, the TGI in the assay with TK-10 renal was 40 µM; in the assay with UACC-257 melanoma, greater than 100 µM.

With `CCN(CC)CCn1c(=O)c2cccnc2n2c3c(=O)n(C)c(=O)n(C)c3nc12`, the TGI with EKVX NSCLC, in the assay with HCC-2998 colon, in the assay on HL-60(TB) leukemia, in the assay with HT29 colon, with KM12 colon and with M14 melanoma was greater than 100 µM in each case. The TGI with MDA-MB-435, with NCI-H23 lung, with NCI-H460 lung, in the assay on RPMI-8226 leukemia, in the assay with RXF 393 renal and with SF-268 CNS was greater than 100 µM throughout. In addition, the TGI with SF-295 CNS, in the assay with SK-MEL-2 melanoma, with SK-OV-3 ovarian, with SN12C renal, with SNB-75 CNS and in the assay on SW-620 colon was greater than 100 µM throughout. The TGI in the assay on TK-10 renal was 57.4 µM; with UACC-257 melanoma it was greater than 100 µM.

Regarding `Cc1cn(C2CC(O)C(CO)O2)c(=O)[nH]c1=O` (stereo not given), the TGI in the assay with EKVX NSCLC is 4950 µM; with HCC-2998 colon, greater than 5000 µM; in the assay with HL-60(TB) leukemia it was greater than 5000 µM; in the assay with HT29 colon it was greater than 5000 µM; in the assay on KM12 colon, greater than 5000 µM; in the assay on M14 melanoma it was greater than 5000 µM. Besides, the TGI was greater than 5000 µM in the assay on MDA-MB-435; greater than 4530 µM with NCI-H23 lung; greater than 5000 µM with NCI-H460 lung; greater than 5000 µM in the assay on RPMI-8226 leukemia; greater than 5000 µM with RXF 393 renal; greater than 5000 µM in the assay with SF-268 CNS. The TGI with SF-295 CNS was greater than 5000 µM; in the assay with SK-MEL-2 melanoma, greater than 5000 µM; with SK-OV-3 ovarian it was greater than 4890 µM; in the assay with SN12C renal, greater than 4240 µM; in the assay with SNB-75 CNS, greater than 4500 µM; with SW-620 colon, greater than 5000 µM. For the same compound, the TGI in the assay on TK-10 renal and with UACC-257 melanoma was greater than 5000 µM in each case.

Turning to `CN1CSC(=S)N(c2c3ccccc3nc3ccc(Br)cc23)C1`, the TGI with EKVX NSCLC is 33.1 µM; in the assay with HCC-2998 colon, 8.3 µM; in the assay with HL-60(TB) leukemia, 27.2 µM; in the assay on HT29 colon, 23.1 µM; in the assay with KM12 colon, 33.6 µM; in the assay on M14 melanoma, 26.9 µM. For the same compound, the TGI came to 26.5 µM with MDA-MB-435; 23.5 µM in the assay with NCI-H23 lung; 13.6 µM with NCI-H460 lung; 31.4 µM with RPMI-8226 leukemia; 24.7 µM in the assay on RXF 393 renal; 27.4 µM in the assay on SF-268 CNS. In addition, the TGI in the assay with SF-295 CNS came to 21.2 µM; in the assay on SK-MEL-2 melanoma, 29.3 µM; with SK-OV-3 ovarian, 31.1 µM; with SN12C renal, 18.8 µM; in the assay on SNB-75 CNS, 23.7 µM; in the assay with SW-620 colon, 23.8 µM. Also, the TGI amounted to 21.9 µM in the assay on TK-10 renal and 24.8 µM in the assay with UACC-257 melanoma.

For `CC1(C)CCCC2OC2CCC(C)(C)C1=O` (stereo not given), the TGI with EKVX NSCLC, in the assay with HCC-2998 colon, in the assay with HL-60(TB) leukemia, in the assay with HT29 colon, in the assay on KM12 colon and in the assay with M14 melanoma was greater than 100 µM in each case. Also, the TGI in the assay with MDA-MB-435, with NCI-H23 lung, in the assay on NCI-H460 lung, in the assay with RPMI-8226 leukemia, in the assay with RXF 393 renal and with SF-268 CNS was greater than 100 µM throughout. Besides, the TGI in the assay on SF-295 CNS, in the assay with SK-MEL-2 melanoma, with SK-OV-3 ovarian, with SN12C renal, in the assay on SNB-75 CNS and in the assay on SW-620 colon was greater than 100 µM in each case. The TGI in the assay on TK-10 renal and with UACC-257 melanoma was greater than 100 µM each time.

Turning to `COc1cccc2c(=O)oc(-c3ccc(C(C)(C)C)cc3)nc12`, the TGI was greater than 100 µM with EKVX NSCLC; 33.5 µM with HCC-2998 colon; 44 µM in the assay with HL-60(TB) leukemia; greater than 100 µM with HT29 colon; greater than 100 µM in the assay with KM12 colon; greater than 100 µM with M14 melanoma. Moreover, the TGI with MDA-MB-435, with NCI-H23 lung, in the assay with NCI-H460 lung, with RPMI-8226 leukemia, in the assay with RXF 393 renal and in the assay with SF-268 CNS was greater than 100 µM throughout. Further, the TGI in the assay on SF-295 CNS, in the assay on SK-MEL-2 melanoma, in the assay on SK-OV-3 ovarian, in the assay with SN12C renal, in the assay with SNB-75 CNS and in the assay with SW-620 colon was greater than 100 µM throughout. In addition, the TGI in the assay with TK-10 renal and with UACC-257 melanoma was greater than 100 µM each time.

Consider `CSC(=S)N/N=C(\C)c1ccc(S(=O)(=O)N(C)c2ccccc2)cc1`, for which the TGI in the assay with EKVX NSCLC, in the assay with HCC-2998 colon, in the assay on HL-60(TB) leukemia, in the assay with HT29 colon, in the assay with KM12 colon and in the assay with M14 melanoma was greater than 100 µM throughout. In addition, the TGI in the assay with MDA-MB-435, in the assay on NCI-H23 lung, in the assay with NCI-H460 lung, in the assay on RPMI-8226 leukemia, in the assay with RXF 393 renal and with SF-268 CNS was greater than 100 µM throughout. Also, the TGI in the assay on SF-295 CNS, in the assay on SK-MEL-2 melanoma, in the assay with SK-OV-3 ovarian, in the assay with SN12C renal, with SNB-75 CNS and with SW-620 colon was greater than 100 µM throughout. Besides, the TGI with TK-10 renal and with UACC-257 melanoma was greater than 100 µM throughout.

In the case of `CCN(CC)CCN(C(=Nc1ccccc1)N1CCOCC1)c1ccccc1`, the TGI with EKVX NSCLC, in the assay on HCC-2998 colon, with HL-60(TB) leukemia, with HT29 colon, with KM12 colon and with M14 melanoma was greater than 100 µM each time. The TGI in the assay on MDA-MB-435, in the assay on NCI-H23 lung, with NCI-H460 lung, with RPMI-8226 leukemia, with RXF 393 renal and in the assay on SF-268 CNS was greater than 100 µM in each case. Moreover, the TGI in the assay on SF-295 CNS, in the assay with SK-MEL-2 melanoma, in the assay on SK-OV-3 ovarian, in the assay on SN12C renal, in the assay on SNB-75 CNS and in the assay with SW-620 colon was greater than 100 µM throughout. Moreover, the TGI with TK-10 renal and in the assay on UACC-257 melanoma was greater than 100 µM in each case.

With `NC1=NCC(CN2CCOCC2)O1` (stereo not given), the TGI with EKVX NSCLC, with HCC-2998 colon, in the assay on HL-60(TB) leukemia, in the assay with HT29 colon, in the assay on KM12 colon and in the assay on M14 melanoma was greater than 100 µM in each case. The TGI with MDA-MB-435, with NCI-H23 lung, in the assay on NCI-H460 lung, in the assay with RPMI-8226 leukemia, in the assay with RXF 393 renal and in the assay on SF-268 CNS was greater than 100 µM throughout. Moreover, the TGI in the assay on SF-295 CNS, in the assay on SK-MEL-2 melanoma, in the assay with SK-OV-3 ovarian, in the assay on SN12C renal, in the assay on SNB-75 CNS and in the assay with SW-620 colon was greater than 100 µM throughout. Also, the TGI with TK-10 renal and in the assay with UACC-257 melanoma was greater than 100 µM throughout.
